Article PMC9490236, “Accurate de novo design of membrane-traversing macrocycles” (Cell, 2022)
Where a SMILES comes first, the peptide text is derived from it. [ ]: non-standard residue; d: D form. dNMeF = CN[C@H](Cc1ccccc1)C(=O)O; NMeL = CN[C@@H](CC(C)C)C(=O)O; dNMeL = CN[C@H](CC(C)C)C(=O)O; NMeA = CN[C@@H](C)C(=O)O; dNMeA = CN[C@H](C)C(=O)O; Aib = CC(C)(N)C(=O)O

Columns and labels:
[1] = Caco-2 permeability assay (apical to basolateral); assay type: in vitro ADME, human; conditions: for Papp A→B: Caco-2, Caco_Papp_Average
Description: (§1) Human colon adenocarcinoma-derived Caco-2 cell line was used as a model system to investigate the intestinal epithelial permeability of our designs. Caco-2 cells were propagated in T125 flasks (Corning, Merck) using Dulbecco’s modified Eagle medium supplemented with 10% (v/v) fetal bovine serum, 1% (v/v) nonessential amino acids, and 1% (v/v) penicillin-streptomycin (Gibco, Thermo Fisher Scientific) at 37°C in an atmosphere of 5% CO2. Cells were subcultured when they reached 80% confluence.
(§2) The permeability of designed peptides was evaluated using an accelerated 6-day Caco-2 permeability assay as described previously ([Sevin et al., 2013]). In brief, cells were seeded into the 12-well Transwell plates with 0.4 μm polyester membrane inserts (Corning, Merck) to give 4.0 × 10^5 cells/well. The complete assay medium contained Dulbecco’s modified Eagle medium supplemented with 10% (v/v) fetal bovine serum, 1% (v/v) nonessential amino acids, and 0.4 μg/mL puromycin. The medium in plates was renewed every second day. The inserts received 0.75 mL of assay medium in the upper compartment (apical chamber) and 1.5 mL in the bottom compartment (basolateral chamber) individually. After 6-day incubation or until the cells formed monolayers, the medium in the apical and basolateral chamber was replaced with peptide solutions at 50 μM or Hanks' Balanced Salt Solution (HBSS), separately. The plates were incubated for 90 min at 37°C on an orbital shaker (60 rpm). The peptide concentration of solutions in the apical and basolateral compartments was subsequently quantified using LC-MS (Qstar Elite, AB Sciex Australia) to evaluate the transmembrane flux of peptides in the apical-to-basolateral direction. Membrane integrity of the Caco-2 cell monolayer was validated using trans-epithelial electrical resistance (TEER) measurements before and after the assays. Atenolol and quinidine were included as negative and positive controls in all assays.

Caco-2 cells = test: Caco-2 permeability assay (apical to basolateral); assay type: in vitro ADME, human; conditions: Caco-2
Description: as §1, §2

[2] = PAMPA
in vitro = conditions: PAMPA, PAMPA_Papp_Avg

SMILES | Papp A→B [1] [×10⁻⁶ cm/s] | Caco_R1 (Caco-2 cells) | Caco_R3 (Caco-2 cells) | PAMPA_R1 [2] | PAMPA_R3 [2] | Papp (in vitro) [×10⁻⁶ cm/s] | Papp ([1]; Caco-2) [×10⁻⁶ cm/s] | PAMPA_Papp_Avg [2] | Papp at 90 min, 50 µM ([1]; human, Caco-2) [×10⁻⁶ cm/s]
CC[C@H](C)[C@@H]1NC(=O)[C@@H](CC(C)C)NC(=O)[C@H](CC(C)C)N(C)C(=O)[C@H](Cc2ccccc2)NC(=O)CN(C)C(=O)[C@@H]2CCCN2C(=O)[C@H](C(C)C)NC(=O)[C@H](Cc2ccccc2)N(C)C(=O)[C@H]2CCCN2C(=O)[C@H](CC(C)C)NC1=O (single isomer, unassigned) [Design D10.1.p1, DLEU ILE LEU DPRO *PHE VAL PRO *GLY PHE *LEU] | 8.65 | 8.51 | 8.51 | 4.75E-06 | 3.42E-06 | 3.92 |  |  | 
CC[C@H](C)[C@@H]1NC(=O)[C@@H](C(C)C)NC(=O)[C@@H]2CCCN2C(=O)[C@@H](CC(C)C)N(C)C(=O)[C@@H](C(C)C)NC(=O)[C@H](CC(C)C)N(C)C(=O)[C@H]2CCCN2C(=O)[C@@H](C)NC(=O)[C@H](Cc2ccccc2)N(C)C(=O)[C@H]2CCCN2C1=O (single isomer, unassigned) [Design D10.3.p1, ILE DPRO *PHE DALA DPRO *LEU DVAL *DLEU PRO DVAL] | 3.15 | 1.3 | 6.15 | 3.04E-06 | 1.85E-06 | 2.52 |  |  | 
CC(C)C[C@@H]1NC(=O)[C@@H](CC(C)C)NC(=O)[C@H]2CCCN2C(=O)[C@H](CC(C)C)NC(=O)[C@@H](CC(C)C)NC(=O)[C@H](CC(C)C)NC(=O)[C@@H]2CCCN2C(=O)[C@@H](C)NC1=O [Design D8.1, DLEU LEU DPRO DLEU LEU DALA PRO LEU] (cyclo(L[dA]PL[dL]L[dP][dL])) | 23.3 | 27.58 | 23.71 | 7.08E-06 | 6.42E-06 | 6.94 | 23.3 |  | 
CC[C@@H](C)[C@H]1NC(=O)[C@@H](CC(C)C)NC(=O)C(C)(C)NC(=O)[C@@H]2CCCN2C(=O)[C@@H]([C@H](C)CC)NC(=O)[C@@H](CC(C)C)NC(=O)C(C)(C)NC(=O)[C@@H]2CCCN2C1=O [Design D8.2, PRO AIB DLEU DILE PRO AIB DLEU DILE] (cyclo([Aib][dL][dI]P[Aib][dL][dI]P)) | 11.7 | 8.98 | 13.19 | 7.36E-06 | 1.04E-05 | 7.49 |  |  | 
CC[C@@H](C)[C@H]1NC(=O)[C@@H](CC(C)C)NC(=O)[C@@H](CC(C)C)N(C)C(=O)[C@@H]2CCCN2C(=O)[C@@H](C(C)C)NC(=O)[C@@H](CC(C)C)NC(=O)[C@@H](CC(C)C)N(C)C(=O)[C@@H]2CCCN2C1=O [Design D8.3.p2, DLEU DVAL PRO *DLEU DLEU DILE PRO *DLEU] (cyclo(P[dNMeL][dL][dI]P[dNMeL][dL][dV])) | 2.73 | 4.06 | 1.54 | BQL | BQL |  |  | BQL | 
CC(C)C[C@@H]1NC(=O)[C@H](Cc2ccccc2)NC(=O)[C@@H](CC(C)C)NC(=O)[C@H]2CCCN2C(=O)[C@H](C(C)C)NC(=O)[C@@H](CC(C)C)NC(=O)[C@H]2CCCN2C(=O)[C@@H]2CCCN2C1=O [Design D8.5.p2, PHE LEU PRO DPRO DLEU VAL DPRO DLEU] (cyclo(FLP[dP][dL]V[dP][dL])) | 21.4 | 17.839 | 20.36 | 5.46E-06 | 5.67E-06 | 5.8 |  |  | 
CC(C)C[C@@H]1NC(=O)[C@H]2CCCN2C(=O)[C@@H]2CCCN2C(=O)[C@H](CC(C)C)NC(=O)[C@@H](CC(C)C)NC(=O)[C@@H](C)N(C)C(=O)[C@@H](C)N(C)C(=O)[C@@H](C(C)C)NC1=O [Design D8.6, LEU PRO DPRO LEU DVAL *DALA *DALA DLEU] (cyclo(LP[dP]L[dV][dNMeA][dNMeA][dL])) | 0.737 | 0.86 | 0.45 | 3.54E-06 | 3.44E-06 | 3.35 |  |  | 
CC[C@@H](C)[C@H]1NC(=O)[C@@H](CC(C)C)N(C)C(=O)[C@@H]2CCCN2C(=O)[C@@H]([C@H](C)CC)NC(=O)[C@@H](CC(C)C)NC(=O)[C@@H](CC(C)C)N(C)C(=O)[C@@H]2CCCN2C(=O)[C@@H](C(C)C)NC1=O [Design D8.8, PRO *DLEU DLEU DILE PRO *DLEU DILE DVAL] (cyclo(P[dNMeL][dI][dV]P[dNMeL][dL][dI])) | 23 | 20.91 | 24.11 | 9.54E-06 | 3.47E-06 | 5.9 |  |  | 
CC(C)C[C@@H]1C(=O)N[C@H](CC(C)C)C(=O)N2CCC[C@@H]2C(=O)N2CCC[C@@H]2C(=O)N(C)[C@@H](C)C(=O)N[C@H](Cc2ccccc2)C(=O)N[C@@H](C)C(=O)N(C)[C@@H](CC(C)C)C(=O)N1C [Design D8.10, DPRO DPRO *ALA DPHE ALA *LEU *DLEU DLEU] (cyclo(A[NMeL][dNMeL][dL][dP][dP][NMeA][dF])) | 3.91 | 3.8 | 3.36 | 8.77E-07 | 1.78E-06 | 1.23 |  |  | 
CC[C@H](C)[C@@H]1NC(=O)[C@H]2CCCN2C(=O)[C@@H]2CCCN2C(=O)[C@@H](C(C)C)NC(=O)[C@@H](C)N(C)C(=O)[C@H](C)N(C)C(=O)[C@@H](CC(C)C)N(C)C(=O)[C@@H](C(C)C)NC1=O [Design D8.26, DVAL *DLEU *ALA *DALA DVAL PRO DPRO ILE] (cyclo(I[dV][dNMeL][NMeA][dNMeA][dV]P[dP])) | 0.647 | 0.79 | 0.94 | 1.58E-07 | 2.69E-07 | 0.255 |  |  | 
CC(C)C[C@@H]1NC(=O)[C@H](CC(C)C)N(C)C(=O)[C@H]2CCCN2C(=O)[C@@H](C)NC(=O)[C@@H](C)N(C)C(=O)[C@@H](C(C)C)NC(=O)[C@@H](CC(C)C)N(C)C(=O)[C@@H]2CCCN2C1=O [Design D8.30, DALA DPRO *LEU LEU PRO *DLEU DVAL *DALA] (cyclo(LP[dNMeL][dV][dNMeA][dA][dP][NMeL])) | 3.97 | 4.11 | 2.89 | 4.61E-06 | 4.25E-06 | 4.32 |  |  | 
CC(C)C[C@@H]1C(=O)N[C@H](CC(C)C)C(=O)N2CCC[C@@H]2C(=O)N2CCC[C@@H]2C(=O)N(C)[C@@H](CC(C)C)C(=O)N[C@H](CC(C)C)C(=O)N2CCC[C@@H]2C(=O)N2CCC[C@H]2C(=O)N1C [Design D8.32, DPRO DPRO *LEU DLEU DPRO PRO *DLEU DLEU] (cyclo([dNMeL][dL][dP][dP][NMeL][dL][dP]P)) | 2.73 | 2.78 | 2.54 | 5.82E-06 | 5.16E-06 | 5.37 |  |  | 
CC[C@@H](C)[C@H]1NC(=O)[C@H]2CCCN2C(=O)[C@@H]2CCCN2C(=O)[C@@H]([C@H](C)CC)NC(=O)[C@@H](Cc2ccccc2)NC(=O)[C@@H](Cc2ccccc2)N(C)C(=O)[C@@H]2CCCN2C(=O)[C@@H](C(C)C)NC1=O [Design D8.33, DPHE DILE PRO DPRO DILE DVAL PRO *DPHE] (cyclo(P[dNMeF][dF][dI]P[dP][dI][dV])) | 19.1 | 18.4 | 16.82 | 5.91E-06 | 1.01E-05 | 6.72 |  |  | > 10
CC[C@H](C)[C@@H]1NC(=O)[C@@H](CC(C)C)N(C)C(=O)[C@@H]2CCCN2C(=O)[C@H](C(C)C)NC(=O)C(C)(C)NC(=O)[C@H](CC(C)C)NC(=O)C(C)(C)NC(=O)[C@@H]2CCCN2C(=O)[C@H]2CCCN2C1=O [Design D9.1, DPRO PRO AIB LEU AIB VAL PRO *DLEU ILE] (cyclo([Aib]L[Aib]VP[dNMeL]I[dP]P)) | 0.897 | 0.42 | 2.09 | 1.43E-06 | 1.63E-06 | 1.59 |  |  | 
CC[C@@H](C)[C@H]1NC(=O)[C@H](CC(C)C)NC(=O)[C@@H](CC(C)C)NC(=O)[C@H](C(C)C)NC(=O)[C@@H](Cc2ccccc2)N(C)C(=O)[C@@H]2CCCN2C(=O)[C@@H](CC(C)C)NC(=O)[C@H](CC(C)C)N(C)C(=O)[C@H]2CCCN2C1=O [Design D9.3, LEU DILE DPRO *LEU DLEU PRO *DPHE VAL DLEU] (cyclo(L[dI][dP][NMeL][dL]P[dNMeF]V[dL])) | 3.53 | 2.82 | 3.81 | 3.06E-06 | 2.01E-06 | 2.33 |  |  | 
